From patent US10578612B2, “Diagnostic assay” (priority 2010, dated 2020)
“And” between values parts separate entries of the source, which are not always exact repeats. Equal entries are not always repeated. Bridge positions count the residues as written; N and C are the ends. Square brackets hold non-standard residues; d marks the D form. Peptide text beside a SMILES is read from it. * marks the point of attachment. Octanoyl(6-Me) = CCC(C)CCCCC(=O)*; Dab = NCC[CH](N)C(=O)O

Key:
Format in all cases: cell-based, human
[1] = test system: IFN-γ production in stimulated whole blood
[2] = test system: immune response to lipopolysaccharide (LPS), IFN-γ in blood; experiment: Effect of sushi peptide on immune response of blood to LPS (Example 6, FIGS. 1-2); settings: sushi peptide 0-10 μg/ml, antigens CMV and tetanus toxoid, FIGS. 2a-2c
Description: Heparinized blood samples were collected into Li-Hep Vacuette (registered trade mark) tubes (Greiner Bio-one, Germany).
Aliquots of 1 ml of the blood samples were incubated with various concentrations of Lipopolysaccharide (Sigma, Australia) and a sushi peptide ([…]) [SEQ ID NO:1] (American Peptide Company, California) in nil blood collection tubes (QuantiFERON [registered trade mark]-TB Gold In-Tube, Cellestis Ltd, Australia) either as supplied or spiked with tetanus toxoid (1001 fu/ml), or in CMV tubes (QuantiFERON-CMV, Cellestis Ltd, Australia).
Stimulated blood samples were incubated for 16-24 hr at 37° C., after which the tubes were centrifuged and the plasma harvested. The amount of IFN-γ present in each plasma sample was then quantified using the QuantiFERON (registered trade mark)-TB Gold ELISA (Cellestis Limited, Australia) as per the manufacturer's instructions.
ELISA optical density values for IFN-γ standards run on each ELISA plate were used to construct a standard curve from which the amount of IFN-γ present in each of the test plasma samples was converted to IU/mL values.

[3] = test system: non-specific IFN-γ production in blood containing lipopolysaccharides (LPS); experiment: Effect of polymyxin B on non-specific IFN-γ production in blood containing LPS (Example 3)
Description: In this Example, blood from 8 healthy donors was collected in Li-Heparin tubes. Aliquots of 1.0 mL were prepared in 13/75 mm plain gel tubes. An endotoxin, lipopolysaccharides (LPS), was added to each tube of blood at a concentration of 1 μg/mL. Various concentrations of polymyxin B were added to each of the tubes. The blood was then incubated at 37° C. for 20 hours before the tubes were centrifuged and the IFN-γ concentration of the plasma determined by ELISA.

[4] = test system: IFN-γ production in blood (CMV antigen); experiment: Effect of polymyxin B on IFN-γ production in blood in QuantiFERON-CMV tubes (Example 2)
Description: The effect of polymyxin B on IFN-γ production was assessed. Blood from 8 healthy donors was added to QuantiFERON-CMV blood collection tubes (1.0 mL per tube). One tube for each donor had 1.0 μg/mL of polymyxin B added, whilst the second tube served as a control. Blood was incubated at 37° C. for 20 hours before the tubes were centrifuged and the resultant concentration of IFN-γ determined by ELISA.

[5] = test system: non-specific IFN-γ production in blood from BD heparin tube (endotoxin contamination); experiment: Polymyxin B in endotoxin-contaminated BD heparin tubes, IFN-γ assay (Example 4)
Description: Blood was taken from four healthy donors collected in Li-Heparin tubes. […] Tubes were mixed to resolublize the heparin and to ensure blood contact with tube plastic.
Aliquots of 1.0 mL from each heparin tube type were then transferred to 13/75 mm plain gel tubes. The blood was then incubated at 37° C. for 20 hours before the tubes were centrifuged and the IFN-γ concentration of the plasma determined by ELISA.

Which “IFN-γ response to poly(I:C) alone” value [1] does the source give for “polyinosinic acid-polycytidylic acid [PolyI:C]” here?
The value was “relatively small”.

What about the “effect on IFN-γ production with antigen” value [1] of the same molecule?
Its value is “increases the IFN-γ production”.

For “HAEHKVKIGVEQKYGQFPQGTEVTYTCSGNYFLM (Sushi peptide)”, which “effect on immune response to LPS” value [2] is on record?
Its value is “inhibition of an immune response to lipopolysaccharide (LPS)”.

Which “IFN-γ concentration, 1 μg/mL LPS, polymyxin 0.1 ug/mL” value ([3]; blood + 1 μg/mL LPS, polymyxin B 0.1 ug/mL, 37° C. 20 hours, one line per subject) does the source give for `CCC(C)CCCCC(=O)NC(CCN)C(=O)NC(C(=O)NC(CCN)C(=O)NC1CCNC(=O)C(C(C)O)NC(=O)C(CCN)NC(=O)C(CCN)NC(=O)C(CC(C)C)NC(=O)C(Cc2ccccc2)NC(=O)C(CCN)NC1=O)C(C)O` (stereo not drawn) [polymyxin B, N-[4-amino-1-[[1-[[4-amino-1-oxo-1-[[6,9,18-tris(2-aminoethyl)-15-benzyl-3-(1-hydroxyethyl)-12-(2-methylpropyl)-2,5,8,11,14,17,20-heptaoxo-1,4,7,10,13,16,19-heptazacyclotricos-21-yl]amino]butan-2-yl]amino]-3-hydroxy-1-oxobutan-2-yl]amino]-1-oxobutan-2-yl]-6-methyloctanamide] ({Octanoyl(6-Me)}-[Dab]T[Dab][Dab][Dab]FL[Dab][Dab]T; lactam 4-C; configuration not given here) here?
Its value is 0.67 IU/mL and 0.44 IU/mL and 9.28 IU/mL and 2.87 IU/mL and 0.32 IU/mL and 2.00 IU/mL and 0.79 IU/mL and 0.41 IU/mL.

And the “IFN-γ concentration, 1 μg/mL LPS, polymyxin 1 ug/mL” value ([3]; blood + 1 μg/mL LPS, polymyxin B 1 ug/mL, 37° C. 20 hours, one line per subject)?
The value was 0.41 IU/mL and 0.22 IU/mL and 3.31 IU/mL and 2.57 IU/mL and 0.21 IU/mL and 1.17 IU/mL and 0.50 IU/mL and 0.14 IU/mL.

What about the “IFN-γ concentration, 1 μg/mL LPS, polymyxin 10 ug/mL” value ([3]; blood + 1 μg/mL LPS, polymyxin B 10 ug/mL, 37° C. 20 hours, one line per subject) of the same molecule?
The value was 0.25 IU/mL and 0.11 IU/mL (2×) and 1.96 IU/mL and 1.41 IU/mL and 0.36 IU/mL and 0.32 IU/mL and 0.12 IU/mL.

What about the “IFN-γ concentration, 1 μg/mL LPS, polymyxin 100 ug/mL” value ([3]; blood + 1 μg/mL LPS, polymyxin B 100 ug/mL, 37° C. 20 hours, one line per subject) of the same molecule?
Its value is 0.02 IU/mL (3×) and 0.05 IU/mL (2×) and 0.04 IU/mL and 0.18 IU/mL and 0.06 IU/mL.

What about the “effect on non-specific IFN-γ production” value ([3]; samples containing endotoxin (LPS 1 μg/mL)) of the same molecule?
The value was “caused a reduction in non-specific IFN-γ production”.

What about the “effect on the production of IFN-γ” value ([4]; 1 μg/mL polymyxin B, CMV antigen) of the same molecule?
Its value is “does not adversely affect the production of IFN-γ”.

What about the “IFN-γ concentration, CMV + PMB 1.0 μg/mL” value ([4]; QuantiFERON-CMV tube, 1.0 μg/mL polymyxin B, 37° C. 20 hours, ELISA, one line per subject) of the same molecule?
The value was 8.35 IU/mL and 0.04 IU/mL (2×) and 0.08 IU/mL and 0.51 IU/mL and 1.53 IU/mL and 24.28 IU/mL and 0.05 IU/mL and 2.3 IU/mL and 0.55 IU/mL.

And the “effect on non-specific IFN-γ production in BD heparin tubes” value ([5]; 100 ug/mL polymyxin B, BD heparin tubes known to contain endotoxin)?
Its value is “significantly reduced”.

What about the “IFN-gamma, BD Heparin Tube + 100 μg/mL Polymyxin B” value ([5]; blood from BD heparin tube (endotoxin contaminated) with 100 μg/mL polymyxin B, 37° C. 20 hours, one line per subject) of the same molecule?
Its value is 0.51 IU/mL and 0.11 IU/mL (2×) and 0.24 IU/mL.
